# Patent publication US20100324049A1, “DIARYL KETIMINE DERIVATIVE HAVING ANTAGONISM AGAINST MELANIN-CONCENTRATING HORMONE RECEPTOR” (priority 2007, published 2010)
# Molecular target: T1, human MCH-1R (Homo sapiens, UniProt Q99705)
# T1 construct: expressed in transfected cells; host or cells: CHO-K1 (American Type Culture Collection), plasmid vector pEF/myc/cyto
# Assay: MCH binding inhibition test
# Conditions: inhibition of specific [125I]MCH (50 pM) binding; membrane specimen from MCH-1R-expressing CHO-K1 cells; 25° C., 1 hour
# Source text: A cDNA sequence encoding human MCH-1R [FEBS Letters, Vol. 398, 253 (1996); Biochimica et Biophisica Acta, Vol. 1401, 216 (1998)] was cloned into a plasmid vector pEF/myc/cyto (manufactured by In Vitro Gene). The expression plasmid thus obtained was transfected into host cells CHO-K1 (American Type Culture Collection) by using lipofectAMINE PLUS reagent (manufactured by Life Technologies) to thereby give MCH-1R-expressing cells.
# A membrane specimen prepared from the MCH-1R-expressing cells was incubated together with a test compound and 50 pM of [^125I]MCH (manufactured by NEN) in an assay buffer (a 50 mM Tris buffer (pH7.4) containing 10 mM of magnesium chloride, 2 mM of ethylenediaminetetracetic acid, 0.01% of bacitracin and 0.2% of bovine serum albumin) at 25° C. for 1 hour, and then filtered through a glass filter GF/C (manufactured by Whatman). After washing the glass filter with a 50 mM Tris buffer (pH7.4) containing 10 mM of magnesium chloride, 2 mM of ethylenediaminetetracetic acid and 0.04% of Tween-20, the radioactivity on the glass filter was determined. Nonspecific binding was measured in the presence of 1 μM human MCH and the 50% inhibitory concentration (IC50) of the test compound to the specific binding to [^125I]MCH was determined. Table 1 indicates the results.
# T1 sequence (Q99705 whole entry): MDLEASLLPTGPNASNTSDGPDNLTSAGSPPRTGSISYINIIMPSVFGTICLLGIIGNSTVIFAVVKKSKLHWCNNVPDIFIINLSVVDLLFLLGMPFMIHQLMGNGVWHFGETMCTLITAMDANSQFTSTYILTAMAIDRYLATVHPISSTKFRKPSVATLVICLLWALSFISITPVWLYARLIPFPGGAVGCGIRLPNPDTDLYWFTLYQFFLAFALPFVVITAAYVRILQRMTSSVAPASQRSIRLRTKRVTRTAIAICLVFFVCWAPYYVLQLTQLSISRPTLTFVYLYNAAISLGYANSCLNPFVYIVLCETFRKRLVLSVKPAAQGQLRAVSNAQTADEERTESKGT
row,IC50 [nM],Compound
1,6.7,"CS(=O)(=O)CO/N=C(\c1ccc(F)c(F)c1)c1ccc(CN2CCC(c3ccc(F)nc3)CC2)cn1 [Example 3-53, (E)-(3,4-Difluorophenyl)(5-{[4-(6-fluoropyridin-3-yl)piperidin-1-yl]methyl}pyridin-2-yl)methanone O-[(methylsulfonyl)methyl]oxime]"
2,9.7,"Fc1ccc(C2CCN(Cc3cnc(/C(=N/OC4CC4)c4ccc(F)c(F)c4)nc3)CC2)cn1 [Example 4-1, (E)-(3,4-difluorophenyl)(5-{[4-(6-fluoropyridin-3-yl)piperidin-1-yl]methyl}pyrimidin-2-yl)methanone-O-cyclopropyloxime]"
3,0.27,"CCO/N=C(\c1ccc(F)c(F)c1)c1ccc(CN2CCC(c3ccn4ccnc4c3)CC2)cn1 [Example 3-26, (E)-(3,4-Difluorophenyl){5-[(4-imidazo[1,2-a]pyridin-7-ylpiperidin-1-yl)methyl]pyridin-2-yl)methanone O-ethyloxime]"
4,11.2,"CC(C)(O)CO/N=C(\c1ccc(F)c(F)c1)c1ccc(CN2CCC(c3cnn4ncccc34)CC2)cn1 [Example 3-51, (E)-(3,4-Difluorophenyl){5-[(4-pyrazolo[1,5-b]pyridazin-3-ylpiperidin-1-yl)methyl]pyridin-2-yl}methanone O-(2-hydroxy-2-methylpropyl)oxime]"
5,0.11,"CCO/N=C(\c1ccc(F)c(F)c1)c1ccc(CN2CCC(c3cn(C)c4cnccc34)CC2)cn1 [Example 3-33, (E)-(3,4-Difluorophenyl)(5-{[4-(1-methyl-1H-pyrrolo[2,3-c]pyridin-3-yl)piperidin-1-yl]methyl}pyridin-2-yl)methanone O-ethyloxime]"
